Results taken from US20060287248A1, “Asymmetric dosing methods” (Schering Corporation, priority 2005, published 2006).

Experiments:
HCV = experiment: Viral load in HCV patients on regimens of compound of Formula Ia (reverse transcriptase PCR, FIG. 1); assay type: in vivo, human; conditions: Patients with HCV, 200 mg BID, 400 mg BID, 400 mg TID
From the text: FIG. 1 is a graph of mean viral load measured over time with administration of various doses and regimens of compound of Formula Ia; and
Studies of viral activity in HCV infected patients indicate that viral activity and resulting viral load are influenced by the circadian rhythm of the patient. […] Thus, in one aspect of the invention, the one or more discrete dosages are adjusted in amount to provide a highest dose or doses at a time or times corresponding to the time interval when hepatitis-C virus replication is highest.
Patients with HCV were put on various treatment regimens including 200 mg. BID, 400 mg. BID, and 400 mg. TID of a compound of Formula Ia, to determine efficacy of the regimens in reducing viral load. Blood samples were taken at predose and at 0.25, 0.5, 0.75, 1, 1.5, 2, 3, 4, 5, 6, 8, 10, 12, 18, 24, 36, 48, 72, 144 hr post dose using reverse transcriptase PCR methods.

[1] = Serum levels of compound Ia on day 14 in healthy subjects, BID vs TID regimen (FIG. 2); assay type: in vivo, human; conditions: 400 mg TID; for serum/plasma level before the morning dose (time zero), 8 hours after the previous dose: healthy subjects, compared with 8 hours after the morning dose
Method: Healthy subjects were put on one of two regimens of 400 mg BID or 400 mg. TID of a compound of Formula Ia. Blood samples were taken on day 14 immediately prior to the morning dose (time zero) and at 12 hours post-dose (for the BID regimen) or 8 hours post-dose (for the TID regimen).

melanoma A375 tumors = melanoma A375 tumors implanted into the left ventricle of the heart; cited from earlier work

Row | plasma level 8 hours after the morning dose ([1]; compared with level before the morning dose) | serum/plasma level before the morning dose (time zero), 8 hours after the previous dose [1] | serum/plasma level before the morning dose (time zero), 8 hours after the previous dose ([1]; listed as formula la) | Structure (SMILES) | pattern of viral load decline over time (HCV) | pattern of viral load decline over time (HCV; listed as Formula la) | viral load as measured in serum (HCV; predose to 144 hr post dose) | distant bone metastasis to the femur and tibia (melanoma A375 tumors)
1 | much lower | significantly higher at time zero | highest in the morning | CC(C)(C)NC(=O)N[C@H](C(=O)N1C[C@H]2[C@@H]([C@H]1C(=O)NC(CC1CCC1)C(=O)C(N)=O)C2(C)C)C(C)(C)C (stereo partly drawn) [Formula Ia, (1R,5S)-N-[3-Amino-1-(Cyclobutylmethyl)-2,3-Dioxopropyl]-3-[2(S)-[[[(1,1-Dimethylethyl)Amino]Carbonyl]Amino]-3,3-Dimethyl-1-Oxobutyl]-6,6-Dimethyl-3-Azabicyclo[3.1.0]Hexan-2(S)-Carboxamide] | exhibited cyclical fluctuations corresponding to the patients' sleep/wake cycles | the decline in viral load is cyclical | declined with all regimens | 
2 |  |  |  | CN(C)C(=O)[C@H](Cc1ccccc1)NC(=O)[C@H]1O[C@@H]1C(=O)NCCc1ccccn1 [CLIK-148] |  |  |  | reduced distant bone metastasis
